# From PubChem BioAssay (NCI)
# Several values for one entry are separate records, joined by “and”; a condition that tells them apart may be missing. Equal entries are not always repeated.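 Interpolation was linear, between the two tested concentrations surrounding the appropriate level; five concentrations were tested over 48 hours in 96-well plates. Abbreviation: GI50, concentration required for 50% inhibition of growth. TGI marks complete inhibition of growth.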
# How the values were obtained:
# Experiment in all cases: NCI tumour cell line growth inhibition, 48 h
# SK-MEL-28 melanoma = test system: SK-MEL-28 melanoma
# NCI-H460 lung = test system: NCI-H460 lung
# EKVX NSCLC = test system: EKVX NSCLC
# COLO 205 colon = test system: COLO 205 colon
# K-562 leukemia = test system: K-562 leukemia
# 786-0 renal = test system: 786-0 renal
# SF-268 CNS = test system: SF-268 CNS
# OVCAR-3 ovarian = test system: OVCAR-3 ovarian
# CAKI-1 renal = test system: CAKI-1 renal
# HOP-62 NSCLC = test system: HOP-62 NSCLC
Structure (SMILES),GI50 (SK-MEL-28 melanoma),TGI (SK-MEL-28 melanoma),GI50 (NCI-H460 lung),TGI (NCI-H460 lung),GI50 (EKVX NSCLC),TGI (EKVX NSCLC),GI50 (COLO 205 colon),TGI (COLO 205 colon),GI50 (K-562 leukemia),GI50 (786-0 renal),TGI (786-0 renal),GI50 (SF-268 CNS),TGI (SF-268 CNS),GI50 (OVCAR-3 ovarian),TGI (OVCAR-3 ovarian),GI50 (CAKI-1 renal),TGI (CAKI-1 renal),GI50 (HOP-62 NSCLC),TGI (HOP-62 NSCLC),TGI (K-562 leukemia)
NC(=O)c1c(NC(=O)c2ccc(C(F)(F)F)cc2Cl)sc2c1CCC(=O)C2,0.531 µM,2.04 µM,1.29 µM,9.48 µM,1.62 µM,4.93 µM,0.382 µM,1.49 µM,0.126 µM,0.475 µM,15.6 µM,0.456 µM,15.7 µM,0.369 µM,1.33 µM,0.244 µM,0.881 µM,1.25 µM,> 44.5 µM,–
Nc1ccccc1SC(CC(=O)c1ccccc1)c1c(Cl)cccc1Cl (stereo not drawn),11.6 µM,23.9 µM,4.59 µM,17.6 µM,–,–,10.9 µM,29.9 µM,2.76 µM,9.73 µM,23.2 µM,3.43 µM,13.4 µM,3.4 µM,12 µM,4.9 µM,39.9 µM,6.82 µM,27.7 µM,7.69 µM
O=C(O)CC(CC(=O)O)n1cccc1,–,> 100 µM,–,> 100 µM,–,> 100 µM,–,> 100 µM,–,–,> 100 µM,–,–,–,> 100 µM,–,> 100 µM,–,> 100 µM,> 100 µM
N/N=C1\C(=O)N(c2ccc(Cl)c(Cl)c2)C(=O)C1C(=O)Nc1ccc(Cl)c(Cl)c1 (stereo not drawn),–,> 100 µM,–,> 100 µM,–,> 100 µM,–,–,–,–,> 100 µM,–,> 100 µM,–,> 100 µM,–,–,–,> 100 µM,> 100 µM
Cc1c(C(=O)Nc2ccc(Oc3ccnc4cc(OCC(C)(C)O)ccc34)c(F)c2)c(=O)n(-c2ccccc2)n1C,–,–,–,–,–,–,2.81 µM,> 100 µM,0.393 µM,5.2 µM,> 100 µM,6.37 µM,> 100 µM,–,–,–,–,19.4 µM,> 100 µM,15.3 µM
NNC(=O)C(=O)N/N=C1\CCCC1C(=O)CCC(=O)Nc1cccc(Cl)c1 (stereo not drawn),–,> 100 µM,–,> 100 µM,–,> 100 µM,–,> 100 µM,–,–,> 100 µM,–,> 100 µM,–,> 100 µM,–,–,–,> 100 µM,–
Nc1ncnc2c1ncn2C1(CO)OC(CO)C(O)C1O (stereo not drawn),–,> 100 µM,–,> 100 µM,–,–,–,> 100 µM,–,–,> 100 µM,–,> 100 µM,–,–,–,> 100 µM,–,> 100 µM,–
O=C1OC(=O)c2c1cc1cc3c(cc1c2-c1ccc2c(c1)OCO2)OCO3,–,> 100 µM,–,> 100 µM,–,–,–,> 100 µM,–,–,48.1 µM,–,> 100 µM,–,> 100 µM,–,> 100 µM,–,–,> 100 µM
CCCOC(=O)C1C(c2ccc(OC)cc2)NC(c2ccc(OC)cc2)C(C(=O)OCCC)S1(=O)=O (stereo not drawn),> 100 µM,> 100 µM,–,–,> 100 µM,> 100 µM,> 100 µM,> 100 µM,> 100 µM,> 100 µM,> 100 µM,> 100 µM,> 100 µM,> 100 µM,> 100 µM,> 100 µM,> 100 µM,> 100 µM,> 100 µM,> 100 µM
O=NN(CC(=O)NNc1ccccc1)CC(=O)NNc1ccccc1,–,> 100 µM,4.34 µM,> 100 µM,–,–,5.69 µM,> 59.2 µM,0.579 µM,7.85 µM,> 100 µM,22.1 µM,> 100 µM,11.3 µM,> 100 µM,3.77 µM,> 100 µM,> 100 µM,> 100 µM,> 100 µM
CCn1cnc(C[C@H](NC(=O)[C@@H](NC(=O)Nc2cc(C(F)(F)F)cc(C(F)(F)F)c2)C(C)(C)C)C(=O)OC)c1,> 10 µM,> 10 µM,> 10 µM,> 10 µM,–,–,> 10 µM,> 10 µM,> 10 µM,> 10 µM,> 10 µM,> 10 µM,> 10 µM,> 10 µM,> 10 µM,> 10 µM,> 10 µM,> 10 µM,> 10 µM,> 10 µM
CCOC(=O)C(c1ccsc1)P(=O)(OCC)OCC (stereo not drawn),–,32.4 µM,–,66.4 µM,–,80.1 µM,–,26.7 µM,–,–,31.7 µM,–,69.6 µM,–,26.9 µM,–,27.9 µM,–,52 µM,–
CC(C)C[C@H](NC(=O)[C@@H](N)Cc1cccc2ccccc12)B(O)O,0.186 µM,–,1.36 µM,–,1.23 µM and 0.167 µM,5 µM and 3.13 µM,1.92 µM,–,–,0.207 µM,–,0.246 µM and 0.0326 µM,–,0.187 µM,–,0.225 µM,–,0.831 µM,–,–
C=CCN=C1NC(=O)C(CC(=O)Nc2ccc([N+](=O)[O-])cc2[N+](=O)[O-])S1 (stereo not drawn),–,> 100 µM,–,> 100 µM,–,> 100 µM,–,> 100 µM,–,–,> 100 µM,–,> 100 µM,–,> 100 µM,–,> 100 µM,–,> 100 µM,–
